# Measured values reported in ChEMBL document CHEMBL5137080, “Discovery of Novel 7-Hydroxy-5-oxo-4,5-dihydrothieno[3,2-b]pyridine-6-carboxamide Derivatives with Potent and Selective Antifungal Activity against Cryptococcus Species” (J Med Chem, 2022).
# Activity calls are given as the source filed them. The rule behind the calls is not given here.
# Assays:
# Cryptococcus neoformans [1] = test: Antifungal activity against Cryptococcus neoformans clinical isolate HN15 assessed as fungal growth inhibition incubated for 72 hrs in presence of Fluconazole by broth microdilution method; type: functional
# [2] = tested on: Cryptococcus gattii species complex; test: Antifungal activity against Cryptococcus gattii E566 assessed as fungal growth inhibition incubated for 72 hrs in presence of Fluconazole by broth microdilution method; type: functional
# [3] = tested on: Cryptococcus deuterogattii; test: Antifungal activity against Cryptococcus gattii WM178 assessed as reduction on fungal growth at 2 ug/ml incubated for 48 hrs by plate reader assay; type: functional, Cryptococcus gattii species complex; design: scale not given: the % may be the effect or the level left; conditions: dose 2 µg/ml
# Cryptococcus neoformans [4] = test: Synergistic antifungal activity against Cryptococcus neoformans clinical isolate 56992 assessed as fractional inhibitory concentration index incubated for 72 hrs in presence of Fluconazole by broth microdilution method; type: functional
# Cryptococcus neoformans [5] = test: Antifungal activity against Cryptococcus neoformans clinical isolate SH68 assessed as fungal growth inhibition incubated for 72 hrs in presence of Fluconazole by broth microdilution method; type: functional
# [6] = tested on: Cryptococcus deuterogattii; test: Antifungal activity against Cryptococcus gattii WM178 assessed as reduction on fungal growth at 8 ug/ml incubated for 48 hrs by plate reader assay; type: functional, organism-based; conditions: Cryptococcus gattii species complex, dose 8.0 µg/ml
# Pichia kudriavzevii [7] = test: Synergistic antifungal activity against Candida krusei ATCC2340 assessed as fractional inhibitory concentration index incubated for 48 hrs in presence of Fluconazole by broth microdilution method; type: functional
# [8] = AUC (0 to infinitive) in Sprague-Dawley rat at 2 mg/kg,iv by LC-MS/MS analysis; type: ADME, organism-based; design: time infinity, dose 2 mg/kg, route iv; conditions: in vivo
# Cryptococcus neoformans [9] = test: Antifungal activity against Cryptococcus neoformans clinical isolate 445 assessed as fungal growth inhibition incubated for 72 hrs in presence of Fluconazole by broth microdilution method; type: functional
# Nakaseomyces glabratus [10] = test: Synergistic antifungal activity against Candida glabrata ATCC1182 assessed as fractional inhibitory concentration index incubated for 48 hrs in presence of Fluconazole by broth microdilution method; type: functional
# Cryptococcus neoformans [11] = test: Synergistic antifungal activity against Cryptococcus neoformans clinical isolate HN2 assessed as fractional inhibitory concentration index incubated for 72 hrs in presence of Fluconazole by broth microdilution method; type: functional
# Candida tropicalis [12] = test: Antifungal activity against Candida tropicalis ATCC20026 assessed as fungal growth inhibition incubated for 48 hrs in presence of Fluconazole by broth microdilution method; type: functional
# Cryptococcus neoformans [13] = test: Synergistic antifungal activity against Cryptococcus neoformans clinical isolate 444 assessed as fractional inhibitory concentration index incubated for 72 hrs in presence of Fluconazole by broth microdilution method; type: functional
# [14] = Half life in Sprague-Dawley rat at 2 mg/kg,iv by LC-MS/MS analysis; type: ADME, organism-based; conditions: in vivo
# Cryptococcus neoformans [15] = test: Synergistic antifungal activity against Cryptococcus neoformans clinical isolate HN17 assessed as fractional inhibitory concentration index incubated for 72 hrs in presence of Fluconazole by broth microdilution method; type: functional
# [16] = tested on: Cryptococcus gattii species complex; test: Synergistic antifungal activity against Cryptococcus gattii clinical isolate SCZ20031 assessed as fractional inhibitory concentration index incubated for 72 hrs in presence of Fluconazole by broth microdilution method; type: functional
# [17] = Selectivity index, ratio of IC50 for human Caco-2 to MIC for antifungal activity against Cryptococcus neoformans; type: toxicity; conditions: Caco-2 cells, read-out: Selectivity Index
# Cryptococcus neoformans [18] = test: Synergistic antifungal activity against Cryptococcus neoformans clinical isolate BJ3 assessed as fractional inhibitory concentration index incubated for 72 hrs in presence of Fluconazole by broth microdilution method; type: functional
# Candida parapsilosis = test: Synergistic antifungal activity against Candida parapsilosis ATCC22019 assessed as fractional inhibitory concentration index incubated for 48 hrs in presence of Fluconazole by broth microdilution method; type: functional
# Cryptococcus neoformans [19] = test: Antifungal activity against Cryptococcus neoformans H99 assessed as reduction on fungal growth at 2 ug/ml incubated for 48 hrs by plate reader assay; type: functional; design: scale not given: the % may be the effect or the level left; conditions: dose 2 µg/ml
# Cryptococcus neoformans [20] = test: Synergistic antifungal activity against Cryptococcus neoformans clinical isolate HN20 assessed as fractional inhibitory concentration index incubated for 72 hrs in presence of Fluconazole by broth microdilution method; type: functional
# Cryptococcus neoformans [21] = test: Antifungal activity against Cryptococcus neoformans clinical isolate BJ3 assessed as fungal growth inhibition incubated for 72 hrs in presence of Fluconazole by broth microdilution method; type: functional
# Cryptococcus neoformans [22] = test: Antifungal activity against Cryptococcus neoformans clinical isolate HN1 assessed as fungal growth inhibition incubated for 72 hrs in presence of Fluconazole by broth microdilution method; type: functional
# Nakaseomyces glabratus [23] = test: Antifungal activity against Candida glabrata ATCC1182 assessed as fungal growth inhibition incubated for 48 hrs in presence of Fluconazole by broth microdilution method; type: functional
# Cryptococcus neoformans [24] = test: Antifungal activity against Cryptococcus neoformans clinical isolate HN2 assessed as fungal growth inhibition incubated for 72 hrs in presence of Fluconazole by broth microdilution method; type: functional
# Cryptococcus gattii = test: Synergistic antifungal activity against Cryptococcus gattii WM179 assessed as fractional inhibitory concentration index incubated for 72 hrs in presence of Fluconazole by broth microdilution method; type: functional, Cryptococcus gattii species complex
# [25] = tested on: Cryptococcus gattii species complex; test: Synergistic antifungal activity against Cryptococcus gattii clinical isolate SCZ20031 assessed as fractional inhibitory concentration index incubated for 72 hrs in presence of P163-0892 by broth microdilution method; type: functional
# Cryptococcus neoformans [26] = test: Synergistic antifungal activity against Cryptococcus neoformans clinical isolate 56992 assessed as fractional inhibitory concentration index incubated for 72 hrs in presence of P163-0892 by broth microdilution method; type: functional
# [27] = tested on: Cryptococcus deuterogattii; test: Antifungal activity against Cryptococcus gattii WM178 assessed as fungal growth inhibition incubated for 72 hrs in presence of P163-0892 by broth microdilution method; type: functional, Cryptococcus gattii species complex
# Pichia kudriavzevii [28] = test: Antifungal activity against Candida krusei ATCC2340 assessed as fungal growth inhibition incubated for 48 hrs in presence of P163-0892 by broth microdilution method; type: functional
# Cryptococcus neoformans [29] = test: Synergistic antifungal activity against Cryptococcus neoformans clinical isolate BJ3 assessed as fractional inhibitory concentration index incubated for 72 hrs in presence of P163-0892 by broth microdilution method; type: functional
# Cryptococcus neoformans [30] = test: Antifungal activity against Cryptococcus neoformans clinical isolate 445 assessed as fungal growth inhibition incubated for 72 hrs in presence of P163-0892 by broth microdilution method; type: functional
# Cryptococcus neoformans [31] = test: Synergistic antifungal activity against Cryptococcus neoformans clinical isolate HN2 assessed as fractional inhibitory concentration index incubated for 72 hrs in presence of P163-0892 by broth microdilution method; type: functional
# [Candida] auris = Synergistic antifungal activity against Candida auris CBS 12372 assessed as fractional inhibitory concentration index incubated for 48 hrs in presence of P163-0892 by broth microdilution method; type: functional, Candidozyma auris
# [32] = tested on: Cryptococcus gattii species complex; test: Synergistic antifungal activity against Cryptococcus gattii E566 assessed as fractional inhibitory concentration index incubated for 72 hrs in presence of P163-0892 by broth microdilution method; type: functional
# Pichia kudriavzevii [33] = test: Synergistic antifungal activity against Candida krusei ATCC2340 assessed as fractional inhibitory concentration index incubated for 48 hrs in presence of P163-0892 by broth microdilution method; type: functional
# Cryptococcus neoformans [34] = test: Antifungal activity against Cryptococcus neoformans H99 infected in Wax moth larvae assessed as survival rate at 10 mg/kg measured after 9 days in presence of P163-0892 by Kaplan-Meier method; type: functional; conditions: H99, 216 h, time 9 day
# Candida tropicalis [35] = test: Synergistic antifungal activity against Candida tropicalis ATCC20026 assessed as fractional inhibitory concentration index incubated for 48 hrs in presence of P163-0892 by broth microdilution method; type: functional
structure (smiles),measurement,setting,value
CCCCNC(=O)c1c(O)c2sccc2n(Cc2ccccc2)c1=O,MIC,Cryptococcus neoformans [1],0.0625 µg/mL
same,MIC,[2],0.0313 µg/mL
same,Activity,[3],45.5%
same,fractional inhibitory concentration index (FICI),Cryptococcus neoformans [4],0.25
same,MIC,Cryptococcus neoformans [5],0.0625 µg/mL
same,Activity,[6],Active
same,fractional inhibitory concentration index (FICI),Pichia kudriavzevii [7],0.563
same,AUC,[8],749 ng·h/mL
same,MIC,Cryptococcus neoformans [9],0.125 µg/mL
same,fractional inhibitory concentration index (FICI),Nakaseomyces glabratus [10],0.625
same,fractional inhibitory concentration index (FICI),Cryptococcus neoformans [11],0.188
same,MIC,Candida tropicalis [12],2 µg/mL
same,fractional inhibitory concentration index (FICI),Cryptococcus neoformans [13],0.156
same,t1/2,[14],7.61 h
same,fractional inhibitory concentration index (FICI),Cryptococcus neoformans [15],0.156
same,fractional inhibitory concentration index (FICI),[16],0.25
same,selectivity ratio,[17],> 256
same,fractional inhibitory concentration index (FICI),Cryptococcus neoformans [18],0.188
same,fractional inhibitory concentration index (FICI),Candida parapsilosis,0.625
same,Activity,Cryptococcus neoformans [19],46.8%
same,fractional inhibitory concentration index (FICI),Cryptococcus neoformans [20],0.375
same,MIC,Cryptococcus neoformans [21],0.0313 µg/mL
same,MIC,Cryptococcus neoformans [22],0.0313 µg/mL
same,MIC,Nakaseomyces glabratus [23],16 µg/mL
same,MIC,Cryptococcus neoformans [24],0.0313 µg/mL
same,fractional inhibitory concentration index (FICI),Cryptococcus gattii,0.25
OC(Cn1cncn1)(Cn1cncn1)c1ccc(F)cc1F [FLUCONAZOLE],fractional inhibitory concentration index (FICI),[25],0.25
same,fractional inhibitory concentration index (FICI),Cryptococcus neoformans [26],0.25
same,MIC,[27],0.5 µg/mL
same,MIC,Pichia kudriavzevii [28],32 µg/mL
same,fractional inhibitory concentration index (FICI),Cryptococcus neoformans [29],0.188
same,MIC,Cryptococcus neoformans [30],2 µg/mL
same,fractional inhibitory concentration index (FICI),Cryptococcus neoformans [31],0.188
same,fractional inhibitory concentration index (FICI),[Candida] auris,1.008
same,fractional inhibitory concentration index (FICI),[32],0.188
same,fractional inhibitory concentration index (FICI),Pichia kudriavzevii [33],0.563
same,survival at 10 mg/kg,Cryptococcus neoformans [34],65%
same,fractional inhibitory concentration index (FICI),Candida tropicalis [35],0.516
